HELM strings list units from the 5' end as sugar, base in round brackets, then linkage (d deoxyribose, r ribose, m 2'-O-methyl, p phosphodiester). Strings are as the collection lists them; they lack the last nucleoside at the 3' end of the tested compound. [moe] = 2'-O-(2-methoxyethyl) (MOE); [sp] = phosphorothioate linkage; [m5C] = 5-methylcytosine

The target in this data set is UBE3A-ATS. In words: mouse, dose not given. To be noted: ASO.
As for “RNA1{[moe](G)[sp].[moe]([m5C])p.[moe]([m5C])p.[moe](T)p.[moe](T)p.d(T)[sp].d([m5C])[sp].d(T)[sp].d(A)[sp].d(T)[sp].d(T)[sp].d(T)[sp].d([m5C])[sp].d(A)[sp].d(G)[sp].[moe](A)p.[moe]([m5C])p.[moe]([m5C])[sp].[moe](G)}$$$$ (last 3' nucleoside missing)”, the 3 h FOB score was 1 score 0-7. Turning to “RNA1{[moe](T)[sp].[moe](G)p.[moe](T)p.[moe](G)p.[moe](T)p.d(G)[sp].d(T)[sp].d(T)[sp].d(T)[sp].d(T)[sp].d(T)[sp].d([m5C])[sp].d([m5C])[sp].d(A)[sp].d(T)[sp].[moe](T)p.[moe](T)p.[moe](T)[sp].[moe](T)}$$$$ (last 3' nucleoside missing)”, the 3 h FOB score was found to be 0 score 0-7. As for “RNA1{[moe](G)[sp].[moe]([m5C])p.[moe](T)p.[moe](T)p.[moe]([m5C])p.d(A)[sp].d([m5C])[sp].d([m5C])[sp].d(A)[sp].d(T)[sp].d(T)[sp].d(T)[sp].d(T)[sp].d(G)[sp].d(A)[sp].[moe]([m5C])p.[moe]([m5C])p.[moe](T)[sp].[moe](T)}$$$$ (last 3' nucleoside missing)”, the figure is 2.2 score 0-7. Take “RNA1{[moe](A)[sp].[moe](T)p.[moe](T)p.[moe](G)p.d(G)[sp].d(T)[sp].d([m5C])[sp].d(A)[sp].d(T)[sp].d([m5C])[sp].d(T)[sp].d([m5C])[sp].d(G)[sp].d(G)[sp].[moe](G)p.[moe](T)p.[moe](A)p.[moe](T)[sp].[moe](A)}$$$$ (last 3' nucleoside missing)”: the 3 h FOB score is 4 score 0-7. “RNA1{[moe]([m5C])[sp].[moe](T)p.[moe](T)p.[moe]([m5C])p.d(A)[sp].d([m5C])[sp].d([m5C])[sp].d(A)[sp].d(T)[sp].d(T)[sp].d(T)[sp].d(T)[sp].d(G)[sp].d(A)[sp].[moe]([m5C])p.[moe]([m5C])p.[moe](T)p.[moe](T)[sp].[moe]([m5C])}$$$$ (last 3' nucleoside missing)” came in with a 3 h FOB score of 1 score 0-7. “RNA1{[moe](T)[sp].[moe](G)p.[moe]([m5C])p.[moe](A)p.[moe](T)p.[moe](A)[sp].d([m5C])[sp].d([m5C])[sp].d([m5C])[sp].d(A)[sp].d(G)[sp].d(G)[sp].d(G)[sp].d(T)[sp].[moe](A)p.[moe](G)[sp].[moe](G)}$$$$ (last 3' nucleoside missing)” yielded a 3 h FOB score of 2 score 0-7.

“RNA1{[moe](G)[sp].[moe](T)p.[moe](A)p.[moe]([m5C])p.[moe](A)p.d(A)[sp].d(T)[sp].d(G)[sp].d([m5C])[sp].d(A)[sp].d(T)[sp].d(G)[sp].d(T)[sp].d(G)[sp].d(G)[sp].[moe](G)p.[moe]([m5C])p.[moe]([m5C])[sp].[moe](T)}$$$$ (last 3' nucleoside missing)” showed a 3 h FOB score of 4 score 0-7. As for “RNA1{[moe](T)[sp].[moe](G)p.[moe]([m5C])p.[moe](A)p.[moe](T)[sp].d(A)[sp].d([m5C])[sp].d([m5C])[sp].d([m5C])[sp].d(A)[sp].d(G)[sp].d(G)[sp].d(G)[sp].[moe](T)p.[moe](A)p.[moe](G)[sp].[moe](G)}$$$$ (last 3' nucleoside missing)”, the figure is 1 score 0-7; as for “RNA1{[moe](G)[sp].[moe](G)p.[moe](T)p.[moe](T)p.[moe](A)p.d(G)[sp].d(G)[sp].d(G)[sp].d([m5C])[sp].d(T)[sp].d(A)[sp].d(T)[sp].d(G)[sp].d(T)[sp].d(T)[sp].[moe](A)p.[moe](T)p.[moe](G)[sp].[moe](T)}$$$$ (last 3' nucleoside missing)”, 6 score 0-7; as for “RNA1{[moe](G)[sp].[moe]([m5C])p.[moe]([m5C])p.[moe](A)p.[moe](G)p.[moe](G)[sp].d(T)[sp].d(G)[sp].d(T)[sp].d([m5C])[sp].d(T)[sp].d(T)[sp].d(A)[sp].d(T)[sp].[moe](A)p.[moe](T)[sp].[moe]([m5C])}$$$$ (last 3' nucleoside missing)”, 0 score 0-7. Substance “RNA1{[moe]([m5C])[sp].[moe]([m5C])p.[moe](T)p.[moe](T)p.[moe](T)p.d([m5C])[sp].d(T)[sp].d(A)[sp].d(T)[sp].d(T)[sp].d(T)[sp].d([m5C])[sp].d(A)[sp].d(G)[sp].d(A)[sp].[moe]([m5C])p.[moe]([m5C])p.[moe](G)[sp].[moe](A)}$$$$ (last 3' nucleoside missing)” yielded a 3 h FOB score of 2.3 score 0-7. The substance “RNA1{[moe](A)[sp].[moe]([m5C])p.[moe](T)p.[moe](G)p.[moe](T)p.d(T)[sp].d(A)[sp].d([m5C])[sp].d([m5C])[sp].d(A)[sp].d(A)[sp].d(G)[sp].d(A)[sp].d([m5C])[sp].d(T)[sp].[moe](T)p.[moe]([m5C])p.[moe](A)[sp].[moe](G)}$$$$ (last 3' nucleoside missing)” came in with a 3 h FOB score of 3.8 score 0-7. “RNA1{[moe]([m5C])[sp].[moe](G)p.[moe](G)p.[moe](A)p.[moe]([m5C])p.d(A)[sp].d(G)[sp].d(T)[sp].d(G)[sp].d(T)[sp].d(T)[sp].d(G)[sp].d([m5C])[sp].d(T)[sp].d(G)[sp].[moe](T)p.[moe](T)p.[moe](A)[sp].[moe](G)}$$$$ (last 3' nucleoside missing)” yielded a 3 h FOB score of 6 score 0-7. Substance “RNA1{[moe](G)[sp].[moe](G)p.[moe](G)p.[moe](T)p.[moe](T)p.d(A)[sp].d([m5C])[sp].d(T)[sp].d(T)[sp].d(T)[sp].d([m5C])[sp].d([m5C])[sp].d(A)[sp].d(A)[sp].d(T)[sp].[moe](A)p.[moe](G)p.[moe](A)[sp].[moe](G)}$$$$ (last 3' nucleoside missing)” had a 3 h FOB score of 1.5 score 0-7. Substance “RNA1{[moe](G)[sp].[moe](T)p.[moe](A)p.[moe](T)p.[moe](A)p.d(T)[sp].d(T)[sp].d(A)[sp].d(G)[sp].d(T)[sp].d([m5C])[sp].d(T)[sp].d(A)[sp].d(A)[sp].d(G)[sp].[moe](G)p.[moe]([m5C])p.[moe](A)[sp].[moe](G)}$$$$ (last 3' nucleoside missing)” showed a 3 h FOB score of 3.7 score 0-7. For the substance “RNA1{[moe](G)[sp].[moe](G)p.[moe](G)p.[moe](T)p.[moe](A)p.d([m5C])[sp].d(T)[sp].d(A)[sp].d(T)[sp].d(G)[sp].d(T)[sp].d(T)[sp].d(G)[sp].d(T)[sp].d([m5C])[sp].[moe](A)p.[moe]([m5C])p.[moe](T)[sp].[moe](G)}$$$$ (last 3' nucleoside missing)”, the 3 h FOB score is 6 score 0-7. In the case of “RNA1{[moe](G)[sp].[moe]([m5C])p.[moe](A)p.[moe](T)p.[moe](A)p.[moe]([m5C])[sp].d([m5C])[sp].d([m5C])[sp].d(A)[sp].d(G)[sp].d(G)[sp].d(G)[sp].d(T)[sp].d(A)[sp].[moe](G)p.[moe](G)[sp].[moe](A)}$$$$ (last 3' nucleoside missing)”, the 3 h FOB score amounted to 1 score 0-7.

The substance “RNA1{[moe](T)[sp].[moe]([m5C])p.[moe](A)p.[moe]([m5C])p.[moe]([m5C])p.[moe](A)[sp].d(T)[sp].d(T)[sp].d(T)[sp].d(T)[sp].d(G)[sp].d(A)[sp].d([m5C])[sp].d([m5C])[sp].[moe](T)p.[moe](T)[sp].[moe]([m5C])}$$$$ (last 3' nucleoside missing)” had a 3 h FOB score of 0.3 score 0-7.

The record behind these values is the OligoGym collection.
